Measurements reported in paper PMC5988656, “Phase I studies of AZD1208, a proviral integration Moloney virus kinase inhibitor in solid and haematological cancers” (British Journal of Cancer, 2018).

System: patients with advanced solid tumours
Test: Solid tumour dose-escalation study: safety and tolerability (AEs, DLTs)
Source text: Conducted at two UK centres and one in Japan. Dose escalation followed a rolling six design.[14] Patients received a single dose on Day 1 during Cycle 0, followed by a 3-day washout period, after which multiple dosing was initiated. Cycle 1 was a 21-day period from the first dose of multiple dosing.
The CTCAE (version 4.0) was utilised to grade all AE events.
AEs were summarised by Medical Dictionary for Regulatory Activities (MedDRA) system organ class, MedDRA preferred term and CTCAE grade. Summary statistics of mean, median, standard deviation, minimum, maximum and number of observations were used.

Compound: N[C@@H]1CCCN(c2c(/C=C3\SC(=O)NC3=O)cccc2-c2ccccc2)C1 [AZD1208]
- Abdominal pain (all-grade AE) (120 mg, n = 3): 0 (0.0) n (%)
- Anaemia (all-grade AE) (120 mg, n = 3): 3 (100.0) n (%)
- Constipation (all-grade AE) (120 mg, n = 3): 0 (0.0) n (%)
- Decreased appetite (all-grade AE) (120 mg, n = 3): 1 (33.3) n (%)
- Diarrhoea (all-grade AE) (120 mg, n = 3): 2 (66.7) n (%)
- Dry skin (all-grade AE) (120 mg, n = 3): 0 (0.0) n (%)
- Dyspnoea (all-grade AE) (120 mg, n = 3): 0 (0.0) n (%)
- Fatigue (all-grade AE) (120 mg, n = 3): 0 (0.0) n (%)
- GGT increased (all-grade AE) (120 mg, n = 3): 0 (0.0) n (%)
- Hyperglycaemia (all-grade AE) (120 mg, n = 3): 1 (33.3) n (%)
- Hypoalbuminaemia (all-grade AE) (120 mg, n = 3): 1 (33.3) n (%)
- Hypokalaemia (all-grade AE) (120 mg, n = 3): 0 (0.0) n (%)
- Hyponatraemia (all-grade AE) (120 mg, n = 3): 0 (0.0) n (%)
- Insomnia (all-grade AE) (120 mg, n = 3): 0 (0.0) n (%)
- Musculoskeletal chest pain (all-grade AE) (120 mg, n = 3): 0 (0.0) n (%)
- Nausea (all-grade AE) (120 mg, n = 3): 1 (33.3) n (%)
- Patients with any AE (all-grade AE) (120 mg, n = 3): 3 (100.0) n (%)
- Platelet count decreased (all-grade AE) (120 mg, n = 3): 2 (66.7) n (%)
- Pyrexia (all-grade AE) (120 mg, n = 3): 0 (0.0) n (%)
- Thrombocytopenia (all-grade AE) (120 mg, n = 3): 0 (0.0) n (%)
- Vomiting (all-grade AE) (120 mg, n = 3): 0 (0.0) n (%)
- White blood cell count decreased (all-grade AE) (120 mg, n = 3): 2 (66.7) n (%)
- Patients requiring dose interruptions because of AEs (240 mg): 2 n
- Patients with CTCAE grade ≥3 AEs causally related to AZD1208 (240 mg (anaemia, alanine transaminase increased, GGT increased)): 3 n
- Abdominal pain (all-grade AE) (240 mg, n = 7): 3 (42.9) n (%)
- Anaemia (all-grade AE) (240 mg, n = 7): 4 (57.1) n (%)
- Constipation (all-grade AE) (240 mg, n = 7): 0 (0.0) n (%)
- DLT detail, action taken (240 mg, n = 7): GGT increased, drug interrupted
- Decreased appetite (all-grade AE) (240 mg, n = 7): 3 (42.9) n (%)
- Diarrhoea (all-grade AE) (240 mg, n = 7): 5 (71.4) n (%)
- Dry skin (all-grade AE) (240 mg, n = 7): 3 (42.9) n (%)
- Dyspnoea (all-grade AE) (240 mg, n = 7): 1 (14.3) n (%)
- Fatigue (all-grade AE) (240 mg, n = 7): 2 (28.6) n (%)
- GGT increased (all-grade AE) (240 mg, n = 7): 2 (28.6) n (%)
- Hyperglycaemia (all-grade AE) (240 mg, n = 7): 0 (0.0) n (%)
- Hypoalbuminaemia (all-grade AE) (240 mg, n = 7): 2 (28.6) n (%)
- Hypokalaemia (all-grade AE) (240 mg, n = 7): 0 (0.0) n (%)
- Hyponatraemia (all-grade AE) (240 mg, n = 7): 0 (0.0) n (%)
- Insomnia (all-grade AE) (240 mg, n = 7): 1 (14.3) n (%)
- Musculoskeletal chest pain (all-grade AE) (240 mg, n = 7): 0 (0.0) n (%)
- Nausea (all-grade AE) (240 mg, n = 7): 6 (85.7) n (%)
- Patients with any AE (all-grade AE) (240 mg, n = 7): 7 (100.0) n (%)
- Platelet count decreased (all-grade AE) (240 mg, n = 7): 2 (28.6) n (%)
- Pyrexia (all-grade AE) (240 mg, n = 7): 1 (14.3) n (%)
- Thrombocytopenia (all-grade AE) (240 mg, n = 7): 0 (0.0) n (%)
- Vomiting (all-grade AE) (240 mg, n = 7): 6 (85.7) n (%)
- White blood cell count decreased (all-grade AE) (240 mg, n = 7): 3 (42.9) n (%)
- Patients requiring dose interruptions because of AEs (360 mg): 3 n
- Patients with CTCAE grade ≥3 AEs causally related to AZD1208 (360 mg (lymphocyte decreased)): 1 n
- Abdominal pain (all-grade AE) (360 mg, n = 6): 2 (33.3) n (%)
- Anaemia (all-grade AE) (360 mg, n = 6): 2 (33.3) n (%)
- Constipation (all-grade AE) (360 mg, n = 6): 3 (50.0) n (%)
- Decreased appetite (all-grade AE) (360 mg, n = 6): 2 (33.3) n (%)
- Diarrhoea (all-grade AE) (360 mg, n = 6): 5 (83.3) n (%)
- Dry skin (all-grade AE) (360 mg, n = 6): 1 (16.7) n (%)
- Dyspnoea (all-grade AE) (360 mg, n = 6): 2 (33.3) n (%)
- Fatigue (all-grade AE) (360 mg, n = 6): 3 (50.0) n (%)
- GGT increased (all-grade AE) (360 mg, n = 6): 1 (16.7) n (%)
- Hyperglycaemia (all-grade AE) (360 mg, n = 6): 1 (16.7) n (%)
- Hypoalbuminaemia (all-grade AE) (360 mg, n = 6): 2 (33.3) n (%)
- Hypokalaemia (all-grade AE) (360 mg, n = 6): 0 (0.0) n (%)
- Hyponatraemia (all-grade AE) (360 mg, n = 6): 1 (16.7) n (%)
- Insomnia (all-grade AE) (360 mg, n = 6): 1 (16.7) n (%)
- Musculoskeletal chest pain (all-grade AE) (360 mg, n = 6): 2 (33.3) n (%)
- Nausea (all-grade AE) (360 mg, n = 6): 3 (50.0) n (%)
- Patients with any AE (all-grade AE) (360 mg, n = 6): 6 (100.0) n (%)
- Platelet count decreased (all-grade AE) (360 mg, n = 6): 1 (16.7) n (%)
- Pyrexia (all-grade AE) (360 mg, n = 6): 3 (50.0) n (%)
- Thrombocytopenia (all-grade AE) (360 mg, n = 6): 2 (33.3) n (%)
- Vomiting (all-grade AE) (360 mg, n = 6): 1 (16.7) n (%)
- White blood cell count decreased (all-grade AE) (360 mg, n = 6): 1 (16.7) n (%)
- Patients requiring dose interruptions because of AEs (540 mg): 6 n
- Patients with CTCAE grade ≥3 AEs causally related to AZD1208 (540 mg (vomiting, fatigue, lethargy)): 2 n
- Abdominal pain (all-grade AE) (540 mg, n = 7): 2 (28.6) n (%)
- Anaemia (all-grade AE) (540 mg, n = 7): 4 (57.1) n (%)
- Constipation (all-grade AE) (540 mg, n = 7): 0 (0.0) n (%)
- DLT detail, action taken (540 mg, n = 7): Vomiting, drug permanently discontinued
- Decreased appetite (all-grade AE) (540 mg, n = 7): 4 (57.1) n (%)
- Diarrhoea (all-grade AE) (540 mg, n = 7): 6 (85.7) n (%)
- Dry skin (all-grade AE) (540 mg, n = 7): 2 (28.6) n (%)
- Dyspnoea (all-grade AE) (540 mg, n = 7): 1 (14.3) n (%)
- Fatigue (all-grade AE) (540 mg, n = 7): 3 (42.9) n (%)
- GGT increased (all-grade AE) (540 mg, n = 7): 2 (28.6) n (%)
- Hyperglycaemia (all-grade AE) (540 mg, n = 7): 4 (57.1) n (%)
- Hypoalbuminaemia (all-grade AE) (540 mg, n = 7): 1 (14.3) n (%)
- Hypokalaemia (all-grade AE) (540 mg, n = 7): 2 (28.6) n (%)
- Hyponatraemia (all-grade AE) (540 mg, n = 7): 3 (42.9) n (%)
- Insomnia (all-grade AE) (540 mg, n = 7): 1 (14.3) n (%)
- Musculoskeletal chest pain (all-grade AE) (540 mg, n = 7): 1 (14.3) n (%)
- Nausea (all-grade AE) (540 mg, n = 7): 7 (100.0) n (%)
- Patients with any AE (all-grade AE) (540 mg, n = 7): 7 (100.0) n (%)
- Platelet count decreased (all-grade AE) (540 mg, n = 7): 2 (28.6) n (%)
- Pyrexia (all-grade AE) (540 mg, n = 7): 0 (0.0) n (%)
- Thrombocytopenia (all-grade AE) (540 mg, n = 7): 1 (14.3) n (%)
- Vomiting (all-grade AE) (540 mg, n = 7): 5 (71.4) n (%)
